According to ChEMBL document CHEMBL1127978, “A new hydroxyethylamine class of HIV-1 protease inhibitors with high antiviral potency and oral bioavailability” (Bioorg Med Chem Lett, 1994):

Experiments:
[1] = molecular target: Human immunodeficiency virus type 1 protease (Human immunodeficiency virus 1, UniProt Q72874); assay: In vitro inhibitory activity against HIV-1 protease was evaluated
[2] = test system: Human immunodeficiency virus 1; assay: Inhibition of viral spread in MT-4 human lymphoid cells infected with the HIV-IIIb isolate; format: functional; conditions: Human immunodeficiency virus 1, lymphoid; read-out: CIC95
[3] = Time taken for maximum plasma concentration in dog; format: ADME, organism-based, Canis lupus familiaris
[4] = Maximum plasma concentration in dog; format: ADME, organism-based, Canis lupus familiaris
[5] = Oral bioavailability in dog; format: ADME, organism-based, Canis lupus familiaris; conditions: in vivo

Row | Structure (SMILES) | IC50 [1] | IC95 [2] | other results
1 | CC(C)(C)NC(=O)[C@@H]1CN(C(=O)OCc2ccccc2)CCN1C[C@H](O)[C@H](Cc1ccccc1)NC(=O)O[C@H]1CCOC1 | 12000 nM |  | 
2 | CC(C)(C)NC(=O)[C@@H]1CN(Cc2ccncc2)CCN1C[C@@H](O)[C@H](Cc1ccccc1)NC(=O)O[C@H]1CCOC1 | 293 nM | 1500 nM | 
3 | CC(C)(C)NC(=O)[C@@H]1CN(C(=O)c2cccnc2)CCN1C[C@@H](O)[C@H](Cc1ccccc1)NC(=O)O[C@H]1CCOC1 | 371 nM |  | 
4 | CC(C)(C)NC(=O)[C@@H]1CN(C(=O)c2ccncc2)CCN1C[C@@H](O)[C@H](Cc1ccccc1)NC(=O)O[C@H]1CCOC1 | 132 nM |  | 
5 | CC(C)[C@@H]1[C@H](OC(=O)N[C@@H](Cc2ccccc2)[C@H](O)CN2CCN(Cc3cc(Cl)cc(Cl)c3)C[C@H]2C(=O)NC(C)(C)C)CCS1(=O)=O |  | 100 nM | 
6 | CC(C)(C)NC(=O)[C@@H]1CN(C(=O)OCc2ccccc2)CCN1C[C@@H](O)[C@H](Cc1ccccc1)NC(=O)O[C@H]1CCOC1 | 18.9 nM |  | 
7 | CC(C)[C@@H]1[C@H](OC(=O)N[C@@H](Cc2ccccc2)[C@H](O)CN2CCN(Cc3cccc(O)c3)C[C@H]2C(=O)NC(C)(C)C)CCS1(=O)=O |  | 100 nM | Tmax [3]: 25 min; Cmax [4]: 4 µM
8 | CC(C)[C@@H]1[C@H](OC(=O)N[C@@H](Cc2ccccc2)[C@H](O)CN2CCN(Cc3ccc4ccccc4c3)C[C@H]2C(=O)NC(C)(C)C)CCS1(=O)=O |  | 50 nM | 
9 | CC(C)(C)NC(=O)[C@@H]1CN(Cc2cccnc2)CCN1C[C@@H](O)[C@H](Cc1ccccc1)NC(=O)O[C@H]1CCOC1 | 676 nM | 1500 nM | 
10 | Cc1cc(CN2CCN(C[C@@H](O)[C@H](Cc3ccccc3)NC(=O)O[C@@H]3CCS(=O)(=O)[C@@H]3C(C)C)[C@H](C(=O)NC(C)(C)C)C2)cc(Cl)n1 |  | 50 nM | bioavailability [5]: 34.8%
11 | CC(C)[C@@H]1[C@H](OC(=O)N[C@@H](Cc2ccccc2)[C@H](O)CN2CCN(Cc3ccncc3)C[C@H]2C(=O)NC(C)(C)C)CCS1(=O)=O |  | 200 nM | Cmax [4]: 6.5 µM
12 | CC(C)(C)NC(=O)[C@@H]1CN(CCCc2ccccc2)CCN1C[C@@H](O)[C@H](Cc1ccccc1)NC(=O)O[C@H]1CCOC1 | 175 nM |  | 
13 | CC(C)(C)NC(=O)[C@@H]1CN(CCc2ccccc2)CCN1C[C@@H](O)[C@H](Cc1ccccc1)NC(=O)O[C@H]1CCOC1 | 478 nM |  | 
14 | CC(C)(C)NC(=O)[C@@H]1CN(C(=O)c2ccccc2)CCN1C[C@@H](O)[C@H](Cc1ccccc1)NC(=O)O[C@H]1CCOC1 | 414 nM |  | 
15 | CC(C)(C)NC(=O)[C@@H]1CN(Cc2ccccn2)CCN1C[C@@H](O)[C@H](Cc1ccccc1)NC(=O)O[C@H]1CCOC1 | 957 nM |  | 
16 | CC(C)(C)NC(=O)[C@@H]1CN(Cc2ccccc2)CCN1C[C@@H](O)[C@H](Cc1ccccc1)NC(=O)O[C@H]1CCOC1 | 102 nM |  | 
17 | CC(C)(C)NC(=O)[C@@H]1CN(Cc2ccc(O)cc2)CCN1C[C@@H](O)[C@H](Cc1ccccc1)NC(=O)O[C@H]1CCOC1 | 153 nM |  | 
18 | CC(C)(C)NC(=O)[C@@H]1CN(Cc2ccccc2O)CCN1C[C@@H](O)[C@H](Cc1ccccc1)NC(=O)O[C@H]1CCOC1 | 102 nM |  | 
19 | CC(C)(C)NC(=O)[C@@H]1CN(Cc2cccc(O)c2)CCN1C[C@@H](O)[C@H](Cc1ccccc1)NC(=O)O[C@H]1CCOC1 | 482 nM | 400 nM | 
20 | Cc1ccc(CN2CCN(C[C@@H](O)[C@H](Cc3ccccc3)NC(=O)O[C@@H]3CCS(=O)(=O)[C@@H]3C(C)C)[C@H](C(=O)NC(C)(C)C)C2)cn1 |  | 100 nM | 
21 | Cc1cc(C)cc(CN2CCN(C[C@@H](O)[C@H](Cc3ccccc3)NC(=O)O[C@@H]3CCS(=O)(=O)[C@@H]3C(C)C)[C@H](C(=O)NC(C)(C)C)C2)c1 |  | 100 nM | 
22 | CC(C)(C)NC(=O)[C@@H]1CN(C(=O)c2ccccn2)CCN1C[C@@H](O)[C@H](Cc1ccccc1)NC(=O)O[C@H]1CCOC1 | 257 nM |  | 
